Measurements from article PMC10354055, “An optimized Nurr1 agonist provides disease-modifying effects in Parkinson’s disease models” (Nature Communications, 2023).
Values joined by “and” are separate entries in the source; they are usually repeats but may differ in a detail not shown here. Identical values can stand only once.

Experiments:
Assay in all cases: Luciferase assay with point-mutants of Nurr1-LBD, SK-N-BE(2)C cells;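 note: Firefly luciferase normalized to beta-galactosidase activity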
Format in all cases: cell-based
Nurr1-LBD point mutants [1] = biological target: T1, Nurr1-LBD point mutants (Mus musculus, UniProt Q06219); conditions: Supplementary Fig. 2, WT
T1 construct: expressed in transfected cells; host or cells: SK-N-BE(2)C
T1 sequence (Q06219 whole entry, change not shown, the tested form may be a part): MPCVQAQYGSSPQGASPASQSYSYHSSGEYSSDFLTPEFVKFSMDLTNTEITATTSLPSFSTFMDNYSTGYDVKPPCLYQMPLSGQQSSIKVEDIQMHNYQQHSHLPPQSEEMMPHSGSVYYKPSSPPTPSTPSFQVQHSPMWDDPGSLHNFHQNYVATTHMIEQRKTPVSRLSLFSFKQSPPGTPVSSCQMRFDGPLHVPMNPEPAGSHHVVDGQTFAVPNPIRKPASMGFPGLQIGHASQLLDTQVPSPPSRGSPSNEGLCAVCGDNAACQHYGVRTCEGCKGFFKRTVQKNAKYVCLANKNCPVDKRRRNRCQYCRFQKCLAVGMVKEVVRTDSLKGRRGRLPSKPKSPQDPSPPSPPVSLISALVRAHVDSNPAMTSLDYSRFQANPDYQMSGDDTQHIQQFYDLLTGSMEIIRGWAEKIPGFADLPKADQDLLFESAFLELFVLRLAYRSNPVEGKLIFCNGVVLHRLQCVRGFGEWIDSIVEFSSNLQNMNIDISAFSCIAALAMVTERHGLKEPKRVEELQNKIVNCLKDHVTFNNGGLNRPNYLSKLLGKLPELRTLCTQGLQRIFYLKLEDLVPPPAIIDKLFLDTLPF
Experimental: (§1) Nurr1 transactivity was normalized to β-galactosidase activity.
(§2) Nurr1 mutants were generated using the QuikChange ǁ XL site-directed mutagenesis kit (Agilent Technologies) according to the manufacturer’s instruction. Mutagenesis reactions were carried out on the plasmid of mouse Nurr1 cloned into pcDNA3.1 backbone, and then verified by sequencing.

Nurr1-LBD point mutants [2] = biological target: T2, Nurr1-LBD point mutants (Mus musculus, UniProt Q06219, D594A); conditions: Supplementary Fig. 2, D594A
T2 construct: expressed in transfected cells; host or cells: SK-N-BE(2)C
T2 sequence (Q06219 whole entry D594A, the tested form may be a part): as the sequence (Q06219 whole entry, change not shown, the tested form may be a part) above, with D594A counted along it
Experimental: as §1, §2

Nurr1-LBD point mutants [3] = biological target: T3, Nurr1-LBD point mutants (Mus musculus, UniProt Q06219, K590A); conditions: Supplementary Fig. 2, K590A
T3 construct: expressed in transfected cells; host or cells: SK-N-BE(2)C
T3 sequence (Q06219 whole entry K590A, the tested form may be a part): as the sequence (Q06219 whole entry, change not shown, the tested form may be a part) above, with K590A counted along it
Experimental: as §1, §2

Nurr1-LBD point mutants [4] = biological target: T4, Nurr1-LBD point mutants (Mus musculus, UniProt Q06219, L593A); conditions: Supplementary Fig. 2, L593A
T4 construct: expressed in transfected cells; host or cells: SK-N-BE(2)C
T4 sequence (Q06219 whole entry L593A, the tested form may be a part): as the sequence (Q06219 whole entry, change not shown, the tested form may be a part) above, with L593A counted along it
Experimental: as §1, §2

Nurr1-LBD point mutants [5] = biological target: T5, Nurr1-LBD point mutants (Mus musculus, UniProt Q06219, S441A); conditions: Supplementary Fig. 2, S441A
T5 construct: expressed in transfected cells; host or cells: SK-N-BE(2)C
T5 sequence (Q06219 whole entry S441A, the tested form may be a part): as the sequence (Q06219 whole entry, change not shown, the tested form may be a part) above, with S441A counted along it
Experimental: as §1, §2

`CCN(CC)Cc1cc(Nc2ccnc3cc(Cl)ccc23)ccc1O` [AQ, amodiaquine] was tested, and the “Luciferase activity (fold)” value (Nurr1-LBD point mutants [1]) was 16.1226 fold and 16.0906 fold and 15.547 fold, the “Luciferase activity (fold)” value (Nurr1-LBD point mutants [2]) was 15.1749 fold and 15.4902 fold and 14.0814 fold and the “Luciferase activity (fold)” value (Nurr1-LBD point mutants [3]) was 14.5075 fold and 14.599 fold and 17.3856 fold. The “Luciferase activity (fold)” value (Nurr1-LBD point mutants [4]) was 14.8074 fold and 14.193 fold and 15.2957 fold and the “Luciferase activity (fold)” value (Nurr1-LBD point mutants [5]) was 14.9384 fold and 15.2215 fold and 14.6264 fold.
